{"source": "patent US6569638B1", "about": "“Method for screening compounds for the treatment of neoplasia” (Cell Pathways, Inc, priority 2000, dated 2003)", "key": {"[1]": {"tested_on": "SW-480 colon adenocarcinoma cells", "test": "Apoptosis induction determined by morphology", "format": "cell-based, human", "description": "Apoptosis occurs naturally during normal tissue turnover and during embryonic development of organs and limbs. Apoptosis also is induced by cytotoxic T-lymphocytes and natural killer cells, by ionizing radiation and by certain chemotherapeutic drugs. Inappropriate regulation of apoptosis is thought to play an important role in many pathological conditions including cancer, AIDS, or Alzheimer's disease, etc. Compounds can be screened for induction of apoptosis using cultures of tumor cells maintained under conditions as described above. Treatment of cells with test compounds involves either pre- or post-confluent cultures and treatment for two to seven days at various concentrations. Apoptotic cells are measured in both the attached and “floating” compartments of the cultures. Both compartments are collected by removing the supernatant, trypsinizing the attached cells, and combining both preparations following a centrifugation wash step (10 minutes, 2000 rpm). The protocol for treating tumor cell cultures with sulindac and related compounds to obtain a significant amount of apoptosis has been described in the literature. (See, Piazza, G. A., et al., Cancer Research, 55:31 10-16, 1995, which is incorporated herein by reference). The novel features include collecting both floating and attached cells, identification of the optimal treatment times and dose range for observing apoptosis, and identification of optimal cell culture conditions.\nFollowing treatment with a compound, cultures can be assayed for apoptosis and necrosis by florescent microscopy following labeling with acridine orange and ethidium bromide. The method for measuring apoptotic cell number has previously been described by Duke & Cohen, “Morphological And Biochemical Assays Of Apoptosis,” Current Protocols In Immunology, Coligan et al., eds., 3.17.1-3.17.16 (1992, which is incorporated herein by reference).\nFor example, floating and attached cells can be collected by trypsinization and washed three times in PBS. Aliquots of cells can be centrifuged. […]"}, "[2]": {"tested_on": "cGMP-specific PDE from HT29 cell extracts", "test": "cGMP-specific PDE inhibition", "format": "biochemical, human", "description": "(Thompson, W. J., Teraski, W. L., Epstein, P. M., Strada, S. J., Advances in Cyclic Nucleotide Research, 10:69-92, 1979, which is incorporated herein by reference). In brief, a solution of defined substrate ^3H-cGMP specific activity (0.2 μM; 100,000 cpm; containing 40 mM Tris-HCl (pH 8.0), 5 mM MgCl2 and 1 mg/mL BSA) is mixed with the drug to be tested in a total volume of 400 μl. The mixture is incubated at 30° C. for 10 minutes with isolated PDE of this invention. Reactions are terminated, for example, by boiling the reaction mixture for 75 seconds. After cooling on ice, 100 μl of 0.5 mg/mL snake venom (O. Hannah venom available from Sigma) is added and incubated for 10 minutes at 30° C. This reaction is then terminated by the addition of an alcohol, e.g. 1 mL of 100% methanol. Assay samples are applied to 1 mL Dowex 1-X8 column; and washed with 1 mL of 100% methanol. The amount of radioactivity in the breakthrough and the wash from the column is combined and measured with a scintillation counter. The degree of phosphodiesterase inhibition is determined by calculating the amount of radioactivity in drug-treated reactions and comparing against a control sample (a reaction mixture lacking the tested compound but with drug solvent)."}, "[3]": {"test": "Single, escalating dose human safety study", "format": "in vivo", "details": "oral"}, "[4]": {"tested_on": "PKG in SW480 colon cancer cells", "test": "PKG assay of drug-treated cell lysates (GST-cGB-PDE5 solid phase substrate)", "format": "cell-based, human", "details": "48 hrs, exisulind 200, 400, 600 μM, E4021 0.1, 1, 10 μM, with and without added cGMP", "description": "To test the effect of cGMP-specific PDE inhibition on neoplasia containing the APC mutation, SW480 colon cancer cells were employed. SW 480 is known to contain the APC mutation. About 5 million SW480 cells in RPMI 5% serum are added to each of 8 dishes:\n2-10 cm dishes—30 μL DMSO vehicle control (without drug),\n3-10 cm dishes—200 μM, 400 μM, 600 μM exisulind in DMSO, and\nThe dishes are incubated for 48 hrs at 37° C. in 5% CO2 incubator.\nThe liquid media are aspirated from the dishes (the cells will attach themselves to the dishes). The attached cells are washed in each dish with cold PBS, and 200 μL cell lysis buffer (i.e., 50 mM Tris-HCl, 1% NP-40, 150 mM NaCl, 1 mM EDTA, 1 mM Na3VO4, 1 mM NaF, 500 μM IBMX with proteinase inhibitors) is added to each dish. Immediately after the cell lysis buffer is added, the lysed cells are collected by scraping the cells off each dish. The cell lysate from each dish is transferred to a microfuge tube, and the microfuge tubes are incubated at 4° C. for 15 minutes while gently agitating the microfuge tubes to allow the cells to lyse completely. […]\nFor each control or drug cell lysate sample to be evaluated, the reaction is started by adding phosphorylation buffer containing 10 μCi ^32P-γ-ATP solution (200 μM ATP, 4.5 mM MgCl; 5 mM KH2PO4; 5 mM K2HPO4;) to each mixture. […]"}}, "data": [{"smiles": "CC1=C(CC(=O)NCc2ccccc2)c2cc(F)ccc2/C1=C\\c1ccncc1.Cl", "note": "[Compound B, (Z)-5-fluoro-2-methyl-(4-pyridylidene)-3-(N-benzyl)indenylacetamide hydrochloride]", "values": [{"measurement": "% Apoptosis", "setting": "[1]; 0.35 μM", "value": 16, "unit": "%"}, {"measurement": "% Apoptosis", "setting": "[1]; 0.7 μM", "value": 27, "unit": "%"}, {"measurement": "% Apoptosis", "setting": "[1]; 1.5 μM", "value": 88, "unit": "%"}, {"measurement": "IC50", "setting": "[2]", "value": 680, "unit": "nM"}, {"measurement": "side effects", "setting": "[3]", "value": "no significant side effects at any dose"}]}, {"smiles": "CC1=C(CC(=O)O)c2cc(F)ccc2/C1=C\\c1ccc(S(C)(=O)=O)cc1", "note": "[exisulind, 5-fluoro-2-methyl-1-(p-methylsulfonylbenzylidene)-3-indenylacetic acid]", "values": [{"measurement": "PKG activity relative to control", "setting": "[4]", "value": "causes PKG activity to increase in a dose-dependent manner"}]}]}
